PMC11433870, “Neurotoxicity, Neuroprotection, In Vitro MAOA/MAOB Inhibitory Activity Assessment, Molecular Docking, and Permeability Assay Studies of Newly Synthesized Hydrazones Containing a Pyrrole Ring” (Molecules, 2024)

Settings: pH 7.4, 50 µM, 4 h, 25 °C; Pe calculated in 10^−6 cm/s, presented as −logPe

Structure (SMILES): CC(C)NCC(O)COc1cccc2ccccc12.Cl (stereo not shown) [Propranolol HCl, reference compound]
- PAMPA BBB −logPe: 4.389 ± 0.014
